Patent publication US8530426B2, “Cosmetic or dermopharmaceutical composition comprising at least one UDP glucuronosyl transferase (UGT) enzymes inducer” (Sederma SAS, priority 2004, dated 2013)

Columns and labels:
Human keratinocytes = test: PGE2 release post-UVB irradiation, keratinocytes (ELISA); assay type: cell-based; details: for Change in PGE2 release post-UVB irradiation, keratinocytes: UVB 30 mJ/cm2, 24 hours
Method: (§1) Human keratinocytes and fibroblasts were cultured in an appropriate medium in the presence of various concentrations of chrysin for 24 hours. The cells were then transferred to a product-free medium and exposed to a pro-inflammatory dose of UVB radiation at a dosage of 35 mJ/cm2 for fibroblasts and 30 mJ/cm2 for keratinocytes. Following irradiation, the cells were then post-incubated either in medium alone or in medium containing various concentrations of chrysin vs. a positive control (acetylsalicylic acid) for 24 hours. PGE2 release into the culture medium after 24 hours was determined using an ELISA method.

UGT1A1 mRNA = test: Induction of UGT1A1 mRNA by chrysin, RT-PCR in hepG2 cells; assay type: cell-based, Human; details: 3 days
Method: Human hepG2 cells were cultured in an appropriate medium (Williams medium) in the presence or absence of the inductor, chrysin, for 3 days At the end of that period, cell lysis was induced, mRNA extracted and RT-PCR conducted
Quantification of UGT1A1 mRNA: The study was conducted after 3 days of incubation in the presence of chrysin. The values, shown in Table 1, obtained were normalized on the GADPH internal standard and then expressed as percentages relative to the reference.

fibroblasts = test: PGE2 release post-UVB irradiation, fibroblasts (ELISA); assay type: cell-based, Human; details: for Change in PGE2 release post-UVB irradiation, fibroblasts: UVB 35 mJ/cm2, 24 hours
Method: as §1

[1] = positive control, concentration not given

Compound | Change in PGE2 release post-UVB irradiation, keratinocytes (Human keratinocytes; 2 μM) [%] | Change in PGE2 release post-UVB irradiation, keratinocytes (Human keratinocytes; 3.9 μM) [%] | Change in PGE2 release post-UVB irradiation, keratinocytes (Human keratinocytes; 7.8 μM) [%] | Change in PGE2 release post-UVB irradiation, keratinocytes (Human keratinocytes; 11.8 μM) [%] | inhibition of keratinocytic PGE2 (Human keratinocytes; maximum over the chrysin concentrations, without a dose effect) | UGT1A1 Induction (UGT1A1 mRNA; chrysin 7.8 μM) | UGT1A1 mRNA, normalized on GADPH, percentage relative to the reference (UGT1A1 mRNA; chrysin 7.8 μM) [%] | UGT1A1 Induction (UGT1A1 mRNA; chrysin 11.8 μM) | UGT1A1 mRNA, normalized on GADPH, percentage relative to the reference (UGT1A1 mRNA; chrysin 11.8 μM) [%] | increase in UGT1A1 mRNA (in words) (UGT1A1 mRNA; dose effect) | Change in PGE2 release post-UVB irradiation, fibroblasts (fibroblasts; 2 μM) [%] | Change in PGE2 release post-UVB irradiation, fibroblasts (fibroblasts; 3.9 μM) [%] | Change in PGE2 release post-UVB irradiation, fibroblasts (fibroblasts; 7.8 μM) [%] | Change in PGE2 release post-UVB irradiation, fibroblasts (fibroblasts; 11.8 μM) [%] | Change in PGE2 release post-UVB irradiation, keratinocytes (Human keratinocytes; [1]) [%] | inhibition of PGE2, keratinocytes (Human keratinocytes; [1]) | Change in PGE2 release post-UVB irradiation, fibroblasts (fibroblasts; [1]) [%] | inhibition of PGE2, fibroblasts (fibroblasts; [1])
O=c1cc(-c2ccccc2)oc2cc(O)cc(O)c12 [Chrysin, 5,7-dihydroxyflavone] | −75 | −84 | −85 | −86 | up to 85% | ×2.5 | 247 | ×6 | 600 | very marked increase | −76 | −85 | −89 | −92 | – | – | – | –
CC(=O)Oc1ccccc1C(=O)O [acetylsalicylic acid, reference compound] | – | – | – | – | – | – | – | – | – | – | – | – | – | – | −92 | greater than 90% | −95 | greater than 90%
